Literature values, collected in patent publication US8729108B2, “Waterborne topical compositions for the delivery of active ingredients such as azelaic acid” (priority 2008, dated 2014).

- solubility in cosmetic oils (cosmetic oils): little or no solubility
- maximum azelaic acid content of an aqueous solution (water): about 0.24 % by weight (w/w)
Compound: O=C(O)CCCCCCCC(=O)O [Azelaic acid, nonanedioic acid]
